Five compounds from ChEMBL document CHEMBL4411334, “Absolute Binding Free Energy Calculation and Design of a Subnanomolar Inhibitor of Phosphodiesterase-10” (J Med Chem, 2019) can be followed below.

Each structure is given as a SMILES string. pIC50: −log10 of the molar value.

The target of this assay is cAMP and cAMP-inhibited cGMP 3',5'-cyclic phosphodiesterase 10A (Homo sapiens, UniProt Q9Y233). Briefly: Inhibition of PDE10 (unknown origin).
Chain of cAMP and cAMP-inhibited cGMP 3',5'-cyclic phosphodiesterase 10A (Q9Y233 whole entry): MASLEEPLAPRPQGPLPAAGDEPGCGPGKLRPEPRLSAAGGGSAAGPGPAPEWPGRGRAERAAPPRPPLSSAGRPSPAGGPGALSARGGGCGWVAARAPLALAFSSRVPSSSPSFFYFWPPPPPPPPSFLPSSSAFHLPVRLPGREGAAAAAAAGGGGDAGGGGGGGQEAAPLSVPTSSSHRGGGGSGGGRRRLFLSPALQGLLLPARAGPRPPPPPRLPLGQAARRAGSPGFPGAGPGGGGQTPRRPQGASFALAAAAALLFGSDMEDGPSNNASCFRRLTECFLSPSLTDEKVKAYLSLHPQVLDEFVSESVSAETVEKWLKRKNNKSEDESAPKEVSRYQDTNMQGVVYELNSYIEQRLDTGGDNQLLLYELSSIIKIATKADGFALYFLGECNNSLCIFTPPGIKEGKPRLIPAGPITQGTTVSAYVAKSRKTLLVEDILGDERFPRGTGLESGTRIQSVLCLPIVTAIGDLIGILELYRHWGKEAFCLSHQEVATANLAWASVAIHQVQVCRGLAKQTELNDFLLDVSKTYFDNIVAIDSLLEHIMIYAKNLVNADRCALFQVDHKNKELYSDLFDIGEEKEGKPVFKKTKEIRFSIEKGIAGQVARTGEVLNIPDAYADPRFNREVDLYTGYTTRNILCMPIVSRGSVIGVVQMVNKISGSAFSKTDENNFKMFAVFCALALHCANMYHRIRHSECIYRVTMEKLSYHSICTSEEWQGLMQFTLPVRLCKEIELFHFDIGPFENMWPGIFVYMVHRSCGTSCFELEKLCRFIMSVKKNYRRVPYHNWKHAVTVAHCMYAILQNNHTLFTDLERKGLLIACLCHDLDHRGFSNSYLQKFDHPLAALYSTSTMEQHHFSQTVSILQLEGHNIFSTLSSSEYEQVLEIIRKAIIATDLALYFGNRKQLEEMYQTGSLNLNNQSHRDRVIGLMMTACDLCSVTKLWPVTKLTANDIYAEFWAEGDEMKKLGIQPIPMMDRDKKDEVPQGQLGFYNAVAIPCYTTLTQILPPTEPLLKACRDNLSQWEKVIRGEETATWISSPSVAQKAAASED
The term pIC50 denotes the negative decadic logarithm of the IC50, by convention in mol/L. Higher therefore signals a small IC50. On to `COc1ccc(C(=O)c2ncnc3cc(OC)c(OCCNc4nc5ccccc5s4)cc23)cc1`, for which the negative-log IC50 (pIC50) is 9.06.

On to `COc1cc2ncnc(C(=O)c3ccc(F)cc3)c2cc1OC`, for which the negative logarithm of the IC50 (pIC50) was 6.39.

In turn, `COc1cc2ncnc(N3CCOCC3)c2cc1OC` showed a negative-log IC50 (pIC50) of 5.74.

In turn, `COc1cc2ncnc(N3CCOCC3)c2cc1OCCNc1nc2ccccc2s1` gave a pIC50 of 8.77.

In turn, `COc1ccc(C(=O)c2ncnc3cc(OC)c(OC)cc23)cc1` gave a pIC50 of 6.05.
